In the NIST ThermoML archive (doi:10.1016/j.jct.2015.01.007):

Assay: molar heat capacity at constant pressure
Conditions: 101.33 kPa

O=P([O-])([O-])[O-].[Fe+2].[Li+] [iron(II) lithium phosphate]
Conditions | molar heat capacity at constant pressure [J/K/mol]
2.03 K, Crystal 2, relaxation calorimetry | 0.0162
2.2 K, Crystal 2, relaxation calorimetry | 0.0187
2.38 K, Crystal 2, relaxation calorimetry | 0.0224
2.58 K, Crystal 2, relaxation calorimetry | 0.0243
2.8 K, Crystal 2, relaxation calorimetry | 0.0271
3.04 K, Crystal 2, relaxation calorimetry | 0.0309
3.29 K, Crystal 2, relaxation calorimetry | 0.0325
3.56 K, Crystal 2, relaxation calorimetry | 0.0401
3.86 K, Crystal 2, relaxation calorimetry | 0.048
4.19 K, Crystal 2, relaxation calorimetry | 0.0562
4.54 K, Crystal 2, relaxation calorimetry | 0.059
4.92 K, Crystal 2, relaxation calorimetry | 0.0709
5 K, Crystal 2, relaxation calorimetry | 0.0481
5.33 K, Crystal 2, relaxation calorimetry | 0.0742
5.78 K, Crystal 2, relaxation calorimetry | 0.0903
6.26 K, Crystal 2, relaxation calorimetry | 0.101
6.78 K, Crystal 2, relaxation calorimetry | 0.12
7.35 K, Crystal 2, relaxation calorimetry | 0.138
7.97 K, Crystal 2, relaxation calorimetry | 0.173
8.64 K, Crystal 2, relaxation calorimetry | 0.22
9.36 K, Crystal 2, relaxation calorimetry | 0.276
10 K, Crystal 2, relaxation calorimetry | 0.3419
10.14 K, Crystal 2, relaxation calorimetry | 0.364
10.23 K, Crystal 2, relaxation calorimetry | 0.46
10.75 K, Crystal 2, relaxation calorimetry | 0.535
11.26 K, Crystal 2, relaxation calorimetry | 0.615
11.77 K, Crystal 2, relaxation calorimetry | 0.706
12.28 K, Crystal 2, relaxation calorimetry | 0.808
12.8 K, Crystal 2, relaxation calorimetry | 0.917
13.31 K, Crystal 2, relaxation calorimetry | 1.038
13.83 K, Crystal 2, relaxation calorimetry | 1.171
14.34 K, Crystal 2, relaxation calorimetry | 1.314
14.85 K, Crystal 2, relaxation calorimetry | 1.467
15 K, Crystal 2, relaxation calorimetry | 1.514
15.36 K, Crystal 2, relaxation calorimetry | 1.631
15.88 K, Crystal 2, relaxation calorimetry | 1.797
16.39 K, Crystal 2, relaxation calorimetry | 1.977
16.9 K, Crystal 2, relaxation calorimetry | 2.169
17.41 K, Crystal 2, relaxation calorimetry | 2.363
17.93 K, Crystal 2, relaxation calorimetry | 2.571
18.44 K, Crystal 2, relaxation calorimetry | 2.79
18.95 K, Crystal 2, relaxation calorimetry | 3.015
19.47 K, Crystal 2, relaxation calorimetry | 3.249
19.98 K, Crystal 2, relaxation calorimetry | 3.484
20 K, Crystal 2, relaxation calorimetry | 3.498
20.49 K, Crystal 2, relaxation calorimetry | 3.75
21.01 K, Crystal 2, relaxation calorimetry | 3.99
21.51 K, Crystal 2, relaxation calorimetry | 4.26
22.03 K, Crystal 2, relaxation calorimetry | 4.55
22.54 K, Crystal 2, relaxation calorimetry | 4.83
23.05 K, Crystal 2, relaxation calorimetry | 5.13
23.56 K, Crystal 2, relaxation calorimetry | 5.43
24.08 K, Crystal 2, relaxation calorimetry | 5.74
24.59 K, Crystal 2, relaxation calorimetry | 6.06
25 K, Crystal 2, relaxation calorimetry | 6.334
25.1 K, Crystal 2, relaxation calorimetry | 6.4
25.61 K, Crystal 2, relaxation calorimetry | 6.75
26.13 K, Crystal 2, relaxation calorimetry | 7.09
26.64 K, Crystal 2, relaxation calorimetry | 7.45
27.15 K, Crystal 2, relaxation calorimetry | 7.84
27.67 K, Crystal 2, relaxation calorimetry | 8.22
28.18 K, Crystal 2, relaxation calorimetry | 8.63
28.69 K, Crystal 2, relaxation calorimetry | 9.04
29.2 K, Crystal 2, relaxation calorimetry | 9.47
29.71 K, Crystal 2, relaxation calorimetry | 9.92
30 K, Crystal 2, relaxation calorimetry | 10.17
30.22 K, Crystal 2, relaxation calorimetry | 10.36
30.73 K, Crystal 2, relaxation calorimetry | 10.82
31.24 K, Crystal 2, relaxation calorimetry | 11.31
31.76 K, Crystal 2, relaxation calorimetry | 11.78
32.27 K, Crystal 2, relaxation calorimetry | 12.28
32.78 K, Crystal 2, relaxation calorimetry | 12.78
33.29 K, Crystal 2, relaxation calorimetry | 13.28
33.8 K, Crystal 2, relaxation calorimetry | 13.81
34.31 K, Crystal 2, relaxation calorimetry | 14.35
34.82 K, Crystal 2, relaxation calorimetry | 14.9
35 K, Crystal 2, relaxation calorimetry | 15.09
35.34 K, Crystal 2, relaxation calorimetry | 15.46
35.85 K, Crystal 2, relaxation calorimetry | 16.03
37.02 K, Crystal 2, relaxation calorimetry | 17.18
38.89 K, Crystal 2, relaxation calorimetry | 19.19
40 K, Crystal 2, relaxation calorimetry | 20.69
40.75 K, Crystal 2, relaxation calorimetry | 21.8
42 K, Crystal 2, relaxation calorimetry | 23.73
42.62 K, Crystal 2, relaxation calorimetry | 24.74
44.48 K, Crystal 2, relaxation calorimetry | 28.1
45 K, Crystal 2, relaxation calorimetry | 29.13
45.5 K, Crystal 2, relaxation calorimetry | 30.18
45.72 K, Crystal 2, relaxation calorimetry | 30.67
45.92 K, Crystal 2, relaxation calorimetry | 31.15
46 K, Crystal 2, relaxation calorimetry | 31.31
46.14 K, Crystal 2, relaxation calorimetry | 31.65
46.34 K, Crystal 2, relaxation calorimetry | 32.17
46.55 K, Crystal 2, relaxation calorimetry | 32.68
46.75 K, Crystal 2, relaxation calorimetry | 33.24
46.97 K, Crystal 2, relaxation calorimetry | 33.77
47 K, Crystal 2, relaxation calorimetry | 33.89
47.16 K, Crystal 2, relaxation calorimetry | 34.33
47.38 K, Crystal 2, relaxation calorimetry | 34.9
47.58 K, Crystal 2, relaxation calorimetry | 35.53
47.8 K, Crystal 2, relaxation calorimetry | 36.14
47.99 K, Crystal 2, relaxation calorimetry | 36.79
48 K, Crystal 2, relaxation calorimetry | 36.77
48.2 K, Crystal 2, relaxation calorimetry | 37.43
48.4 K, Crystal 2, relaxation calorimetry | 38.11
48.62 K, Crystal 2, relaxation calorimetry | 38.7
48.82 K, Crystal 2, relaxation calorimetry | 39.3
49 K, Crystal 2, relaxation calorimetry | 39.73
49.03 K, Crystal 2, relaxation calorimetry | 39.72
49.22 K, Crystal 2, relaxation calorimetry | 40.03
49.24 K, Crystal 1, combination of DSC and relaxation calorimetry | 39.99
49.24 K, Crystal 2, relaxation calorimetry | 39.99
49.44 K, Crystal 1, relaxation calorimetry | 39.73
49.64 K, Crystal 1, relaxation calorimetry | 38.83
49.85 K, Crystal 1, relaxation calorimetry | 36.64
50 K, Crystal 1, combination of DSC and relaxation calorimetry | 34.52
50.05 K, Crystal 1, relaxation calorimetry | 33.84
50.27 K, Crystal 1, relaxation calorimetry | 30.69
50.47 K, Crystal 1, relaxation calorimetry | 28.52
50.69 K, Crystal 1, relaxation calorimetry | 26.66
50.89 K, Crystal 1, relaxation calorimetry | 25.59
51 K, Crystal 1, combination of DSC and relaxation calorimetry | 25.15
51.08 K, Crystal 1, relaxation calorimetry | 24.86
51.29 K, Crystal 1, relaxation calorimetry | 24.3
51.5 K, Crystal 1, relaxation calorimetry | 23.89
51.7 K, Crystal 1, relaxation calorimetry | 23.58
51.9 K, Crystal 1, relaxation calorimetry | 23.36
52 K, Crystal 1, combination of DSC and relaxation calorimetry | 23.25
52.12 K, Crystal 1, relaxation calorimetry | 23.13
52.32 K, Crystal 1, relaxation calorimetry | 22.99
52.53 K, Crystal 1, relaxation calorimetry | 22.88
52.72 K, Crystal 1, relaxation calorimetry | 22.83
52.94 K, Crystal 1, relaxation calorimetry | 22.74
53 K, Crystal 1, combination of DSC and relaxation calorimetry | 22.72
53.14 K, Crystal 1, relaxation calorimetry | 22.69
53.35 K, Crystal 1, relaxation calorimetry | 22.66
53.55 K, Crystal 1, relaxation calorimetry | 22.66
53.77 K, Crystal 1, relaxation calorimetry | 22.66
53.96 K, Crystal 1, relaxation calorimetry | 22.66
54 K, Crystal 1, combination of DSC and relaxation calorimetry | 22.66
54.18 K, Crystal 1, relaxation calorimetry | 22.69
54.38 K, Crystal 1, relaxation calorimetry | 22.68
54.59 K, Crystal 1, relaxation calorimetry | 22.73
54.79 K, Crystal 1, relaxation calorimetry | 22.77
55 K, Crystal 1, combination of DSC and relaxation calorimetry | 22.82
55 K, Crystal 1, relaxation calorimetry | 22.82
55.2 K, Crystal 1, relaxation calorimetry | 22.85
55.41 K, Crystal 1, relaxation calorimetry | 22.91
55.62 K, Crystal 1, relaxation calorimetry | 22.95
56.61 K, Crystal 1, relaxation calorimetry | 23.28
57.71 K, Crystal 1, relaxation calorimetry | 23.69
58.79 K, Crystal 1, relaxation calorimetry | 24.17
59.89 K, Crystal 1, relaxation calorimetry | 24.67
60 K, Crystal 1, combination of DSC and relaxation calorimetry | 24.71
60.97 K, Crystal 1, relaxation calorimetry | 25.19
62.06 K, Crystal 1, relaxation calorimetry | 25.78
63.15 K, Crystal 1, relaxation calorimetry | 26.36
64.24 K, Crystal 1, relaxation calorimetry | 26.97
65 K, Crystal 1, combination of DSC and relaxation calorimetry | 27.41
65.33 K, Crystal 1, relaxation calorimetry | 27.59
